In patent publication US5075287A, “Muramyl peptide derivatives and immunoregulating compositions containing them” (priority 1989, dated 1991):
Read-outs that look alike come from different tables or passages of the source.

Legend:
[1] = system: hepatitis B virus surface antigen (HBs); assay: Hepatitis-vaccine enhancing activity (adjuvant activity): anti-HBs IgG in mouse serum by ELISA; type: in vivo, female CDF1 mice
Protocol: A compound of the present invention was dissolved in lipidmicrosphere (1 mg/ml). On the other hand, a solution of hepatitis B virus surface antigen (HBs) in physiological saline was prepared (50 μg/ml). The above solutions in equal amounts were mixed to prepare a test solution. A control solution was prepared by the exclusion of the compound of the present invention from said test solution. A mixture of a suspension of aluminium hydroxide gel in physiological saline (1 mg/ml) and said hepatitis vaccine preparation in equal amounts was prepared as another control solution. The test solution (0.2 ml) was intraperitoneally administered to each mouse in one group consisting of seven female CDF1 mice.
Blood samples were collected from the fundus ocluli vein of each mouse every week after the administration and then centrifuged to obtain serums. Three weeks after the administration, 0.2 ml of the test liquid was intraperitoneally administered again to each mouse for secondary stimulation. Then blood collecting was conducted every week to obtain serums after the application of the secondary stimulation, in the same manner as that described above.
The amount of the IgG antibodies against the hepatitis B virus surface antigens (HBs) in the serums thus obtained was determined with an ELISA method.

[2] = system: L-1210 mouse leukemia cells; assay: Activation of macrophages (growth inhibition of tumor cells by intraperitoneal macrophages of treated mice, MTT assay); type: cell-based; settings: macrophages taken 3 days after i.p. 0.2 ml of 500 μg/ml, macrophage:L-1210 20:1, 72 hours
Protocol: A compound of the present invention was dissolved in lipidmicrosphere to obtain a solution in a concentration of 500μg/ml, and 0.2 ml of such solution was intraperitoneally administered to each mouse in one group consisting of seven female CDF1 mice. Intraperitoneal macrophages obtained three days after the administration and L-1210 mouse leukemia cells were mixed in the ratio of cell numbers of 20:1, respectively. Two hundred μl of the mixture was placed in each well of one sheet of 96 well microtiter plate. After 72 hours, the increase of the cell number in each well was determined by a MTT assay method. The ratio of the cell number for the mixture of the L-1210 cells and the macrophage relative to the cell number for the L-1210 cells only(growth inhibitory ratio) was determined, and the results are shown in Table 3.

[3] = system: influenza HA vaccine (B/Nagasaki/1/87 strain); type: in vivo, female CDF1 mice
[4] = Experiment 1, 2 W, 5000-fold dilution
[5] = Experiment 1, 3 W, 5000-fold dilution
[6] = Experiment 1, 4 W (after secondary stimulation at 3 weeks), 5000-fold dilution
[7] = Experiment 1, 5 W (after secondary stimulation at 3 weeks), 5000-fold dilution
[8] = Experiment 2, 1 W, 2000-fold dilution
[9] = Experiment 2, 2 W, 2000-fold dilution
[10] = Experiment 2, 3 W, 2000-fold dilution
[11] = Experiment 2, 4 W (after secondary stimulation at 3 weeks), 2000-fold dilution
[12] = Experiment 2, 5 W (after secondary stimulation at 3 weeks), 2000-fold dilution
[13] = Experiment 2, 1 W, 8000-fold dilution
[14] = Experiment 2, 2 W, 8000-fold dilution
[15] = Experiment 2, 3 W, 8000-fold dilution
[16] = Experiment 2, 4 W (after secondary stimulation at 3 weeks), 8000-fold dilution
[17] = Experiment 2, 5 W (after secondary stimulation at 3 weeks), 8000-fold dilution

Row | Structure (SMILES) | Anti-HBs IgG antibody level in serum (ELISA absorbance at 415 nm) [1, 8] [O.D 415 nm] | Anti-HBs IgG antibody level in serum (ELISA absorbance at 415 nm) [1, 9] [O.D 415 nm] | Anti-HBs IgG antibody level in serum (ELISA absorbance at 415 nm) [1, 10] [O.D 415 nm] | Anti-HBs IgG antibody level in serum (ELISA absorbance at 415 nm) [1, 11] [O.D 415 nm] | Anti-HBs IgG antibody level in serum (ELISA absorbance at 415 nm) [1, 12] [O.D 415 nm] | Anti HA serum antigen value (average value ± S.D.) [3, 13] [O.D 415 nm] | Anti HA serum antigen value (average value ± S.D.) [3, 14] [O.D 415 nm] | Anti HA serum antigen value (average value ± S.D.) [3, 15] [O.D 415 nm] | Anti HA serum antigen value (average value ± S.D.) [3, 16] [O.D 415 nm] | Anti HA serum antigen value (average value ± S.D.) [3, 17] [O.D 415 nm] | also measured
1 | CCCCCCCCCCCCCCCCCC(=O)OC[C@H]1O[C@H](OC(=O)C(CCCCCCCCCCCCCC)CCCCCCCCCCCCCC)[C@H](NC(C)=O)[C@@H](O[C@H](C)C(=O)N[C@@H](C)C(=O)N[C@H](CCC(=O)OC)C(N)=O)[C@@H]1O [Example 7, N-[2-0-{2-Acetamido-2,3-dideoxy-6-0-octadecanoyl-1-0-(2-tetradecylhexadecanoyl)-α-D-glucopyranos-3-yl}-D-lactoyl]-L-alanyl-D-isoglutamine methylester] |  |  |  |  |  |  |  |  |  |  | Anti-HBs IgG antibody level in serum (ELISA absorbance at 415 nm) ([1]; Experiment 1, 1 W after i.p. administration, 5000-fold dilution, compound in lipidmicrosphere + HBs): 0 O.D 415 nm; Anti-HBs IgG antibody level in serum (ELISA absorbance at 415 nm) [1, 4]: 0.016 ± 0.003 O.D 415 nm; Anti-HBs IgG antibody level in serum (ELISA absorbance at 415 nm) [1, 5]: 0.071 ± 0.004 O.D 415 nm; Anti-HBs IgG antibody level in serum (ELISA absorbance at 415 nm) [1, 6]: 0.426 ± 0.000 O.D 415 nm; Anti-HBs IgG antibody level in serum (ELISA absorbance at 415 nm) [1, 7]: 0.470 ± 0.010 O.D 415 nm; Growth inhibitory ratio of L-1210 mouse leukemia cells [2]: 90.2%; Anti HA serum antigen value (average value ± S.D.) ([3]; Experiment 1, 1 W after i.p. administration, 5000-fold dilution, compound in lipidmicrosphere + HA vaccine): 0.001 ± 0.001 O.D 415 nm; Anti HA serum antigen value (average value ± S.D.) [3, 4]: 0.112 ± 0.003 O.D 415 nm; Anti HA serum antigen value (average value ± S.D.) [3, 5]: 0.286 ± 0.001 O.D 415 nm; Anti HA serum antigen value (average value ± S.D.) [3, 6]: 1.039 ± 0.010 O.D 415 nm; Anti HA serum antigen value (average value ± S.D.) [3, 7]: 1.128 ± 0.026 O.D 415 nm
2 | CCCCCCCCCCCCCCCCCC(=O)O[C@H](CCCCCCCCCCC)CC(=O)S[C@@H]1O[C@H](CO)[C@@H](O)[C@H](O[C@H](C)C(=O)N[C@@H](C)C(=O)N[C@H](CCC(=O)OC)C(N)=O)[C@H]1NC(C)=O [Example 23, N-[2-0-{2-Acetamido-2,3-dideoxy-1-S-((3R)-3-octadecanoyloxytetradecanoyl)-1-thio-β-D-glucopyranos-3-yl}-D-lactoyl]-L-alanyl-D-isoglutamine methylester] | 0.004 ± 0.001 | 0.051 ± 0.003 | 0.092 ± 0.004 | 0.639 ± 0.003 | 0.626 ± 0.008 | 0.008 ± 0.005 | 0.096 ± 0.001 | 0.183 ± 0.004 | 0.949 ± 0.006 | 1.030 ± 0.003 | 
3 | CCCCCCCCCCCCCCCCCC(=O)OC[C@H]1O[C@H](OC(=O)C[C@@H](CCCCCCCCCCC)OC(=O)CCCCCCCCCCCCCCCCC)[C@H](NC(C)=O)[C@@H](O[C@H](C)C(=O)N[C@@H](C)C(=O)N[C@H](CCC(=O)OC)C(N)=O)[C@@H]1O [Example 22] | 0.005 ± 0.004 | 0.036 ± 0.007 | 0.053 ± 0.001 | 0.294 ± 0.006 | 0.254 ± 0.002 | 0.001 ± 0.004 | 0.065 ± 0.001 | 0.100 ± 0.003 | 0.411 ± 0.009 | 0.492 ± 0.002 | 
4 | CCCCCCCCCCCCCCCCCC(=O)OC[C@H]1O[C@H](OC(=O)C[C@@H](CCCCCCCCCCC)OC(=O)CCCCCCCCCCCCCCC)[C@H](NC(C)=O)[C@@H](O[C@H](C)C(=O)N[C@@H](C)C(=O)N[C@H](CCC(=O)OC)C(N)=O)[C@@H]1O [Example 18, N-[2-0-{2-Acetamido-2,3-dideoxy-6-0octadecanoyl-1-0-((3R)-3-hexadecanoyloxytetradecanoyl)-α-D-glucopyranos-3-yl}-D-lactoyl]-L-alanyl-D-isoglutamine methylester] | 0 | 0.035 ± 0.007 | 0.050 ± 0.004 | 0.481 ± 0.006 | 0.375 ± 0.008 | 0 | 0.052 ± 0.004 | 0.075 ± 0.001 | 0.370 ± 0.005 | 0.360 ± 0.001 | 
5 | CCCCCCCCCCCCCCCC(=O)O[C@H](CCCCCCCCCCC)CC(=O)S[C@@H]1O[C@H](CO)[C@@H](O)[C@H](O[C@H](C)C(=O)N[C@@H](C)C(=O)N[C@H](CCC(=O)OC)C(N)=O)[C@H]1NC(C)=O [Example 19] | 0 | 0.023 ± 0.000 | 0.042 ± 0.001 | 0.536 ± 0.011 | 0.521 ± 0.012 | 0 | 0.125 ± 0.003 | 0.187 ± 0.001 | 0.872 ± 0.002 | 0.936 ± 0.006 | 
6 | CCCCCCCCCCCCCCCCCC(=O)OC[C@H]1O[C@@H](SC(=O)C[C@@H](CCCCCCCCCCC)OC(=O)CCCCCCCCCCCCCCCCC)[C@H](NC(C)=O)[C@@H](O[C@H](C)C(=O)N[C@@H](C)C(=O)N[C@H](CCC(=O)O)C(N)=O)[C@@H]1O [Example 24, N-[2-0-{2-Acetamido-2,3-dideoxy-6-0-octadecanoyl-1-S-((3R)-3-octadecanoyloxytetradecanoyl)-1-thio-β-D-glucopyranos-3-yl}-D-lactoyl]-L-alanyl-D-isoglutamine] | 0.007 ± 0.001 | 0.034 ± 0.001 | 0.050 ± 0.000 | 0.579 ± 0.007 | 0.513 ± 0.011 | 0.006 ± 0.001 | 0.085 ± 0.005 | 0.113 ± 0.007 | 0.771 ± 0.003 | 0.791 ± 0.004 | 
